# According to PMC3331894 (Journal of Immunology (Baltimore, Md. : 1950), 2012):
# What was measured:
# CD4 T cells [1] = format: cell-based, HLA-DR1 transgenic mice; settings: average of at least 3 independent assays
# [2] = biological target: purified soluble DR1 molecules (Homo sapiens, UniProt P01903+P01911, A100R/D57E/F55L/F60I/F76Y/I96L/L162R/M171V/P40L/Q125E/R42F/V115G/Y59C); format: binding
# CD4 T cells [3] = settings: immunodominant or cryptic epitope presented by I-A^d; cited from earlier work
Sequence,Cytokine Spots (number of CD4 T cell recruited per million) (CD4 T cells [1]),dissociation half-time (t1/2) of DR1:peptide complexes [2],"t1/2 (h) pH 5.3, dissociation of DR1:peptide complexes [2]",Immune Response (CD4 T cells [3])
ELLVLLENERTLDFHD [HA-440],146 spots per million CD4 T cells,14.6 days,350 h,–
KRNLLWLTGKNGL [HA-162],163 spots per million CD4 T cells,3.54 days,85 h,–
HNTNGVTAACSHE [HA[126–138]],–,–,–,Cryptic
AMKRHGLDNYRGYSL [HEL[11–25]],–,–,–,Cryptic
HNVNGVTAACSHE [HA[126–138]T128V],–,–,–,Dominant
SGYAADQKSTQNAINGI [HA-375],–,25 days,600 h,–
MEERKIKVYLPRMKME [OVA[273–288]],–,–,–,Dominant
